Measured values: a melting point compilation (Tetko et al.; mined from patent text by program, amines drawn as free bases though some values may be those of a salt)
Residues, ends and D or L forms follow the SMILES beside them. *: point of attachment. Boc = CC(C)(C)OC(=O)*

melting point [°C]	SMILES
230	O=C1CCN2C(=O)c3cccc(-n4c(=O)[nH]c5cnccc5c4=O)c3C2C1 (stereo not given)
58 to 69	CCOc1cc(N(CC)CC)ccc1C1(N(c2ccc(N(C)C)cc2)c2ccc(N(C)C)cc2)OC(=O)c2ccccc21 (stereo not given)
219 to 221	COc1ccc(S(=O)(=O)N2c3ccc(Br)cc3-c3ccccc3C2C)cc1C (stereo not given)
145 to 147	CCC(=O)NCC1CC12c1cc(OC)ccc1-c1ccc(OC)cc12 (stereo not given)
190 to 192	COC(=O)C1=C(C)NC(C)=C(C(=O)OCCC#N)C1c1cccc2c(=O)c(C)c(-c3ccccc3)oc12 (stereo not given)
44	CCc1nc(-c2ccccc2Cl)nn1C
270 to 273	COCCn1cc2c(C3C(=O)Nc4ccc(Br)cc43)nc(NCCC3CCCNC3)nc2n1 (stereo not given)
149 to 151	COc1ccc(Cc2nc3cc(Cl)cc(CC=NO)c3o2)cc1OC1CCCC1
91.1	CC#CCOc1ccc(SC(C(=O)NO)c2ccc(F)cc2)cc1 (stereo not given)
155 to 158	CCOC(=O)c1ccccc1NC(=O)c1oc2nn(C(C)C)c(C)c2c1C
185 to 187	C#Cc1ccc2c(c1)c(=O)c(C(=O)OCC)cn2CC
85 to 86	COc1cc(C)c(OCCCC(C)(C)C(=O)O)cc1C
228 to 229	Cc1ccc2c(Sc3ccc(Cl)cc3)c(C(=O)O)[nH]c2c1
131 to 132	CCOC(=O)Cc1sc(SCc2cc(O)nc(C)n2)nc1C
201	CCCC(=O)Nc1cc(Oc2ccc(Cl)cc2)ccc1NC(=NC(=O)OC)NC(=O)OC
17	CN[C@@H]1CCCC[C@H]1NC (relative stereo)
58 to 59	CCNc1ccc(F)cc1OCc1ccccc1
152 to 153	CC1(C)NC(=O)N(c2ccc(Cl)c(C(F)(F)F)c2)C1=O
228	NS(=O)(=O)c1ccc(-c2cn(-c3nc(-c4ccc(F)c(F)c4)cc(C(F)(F)F)n3)cn2)s1
195 to 196	COc1ccc(S(=O)(=O)NCC(C(=O)NO)C2(CC(C)C)CCN(CCc3ccccc3)C2=O)cc1 (stereo not given)
105 to 107	CCOC(=O)c1ccc(COc2cccc(O)c2C=O)cc1
187 to 189	CCOC(=O)C1=C(C)NC(C)=C(c2nnco2)C1c1cccc(Cl)c1Cl (stereo not given)

melting point [°C]	SMILES
77 to 78	C=Cc1ccc(CSCCC(=O)O)cc1
163	CCOC(=O)c1c(NCC(=O)c2ccccc2Cc2ccccc2)c2c(Cl)cc(Cl)cc2n1C(=O)OC(C)(C)C
184 to 185	CO[C@@H](Cc1ccc(OCCc2nc(-c3cc(C)cc(C)c3)oc2C)c2ccsc12)C(=O)O
108	N#CCCN1CCC2C(C1)c1ccccc1N2c1ccccc1 (stereo not given)
211 to 212	Cc1nnc(-c2ccc3ncn(-c4ccc(OC(F)(F)F)c(Cl)c4)c3c2)o1
119 to 120	Cc1oc(-c2ccccc2)nc1CCC(=O)c1ccc(C=CC=O)cc1
74.5 to 76	O=[N+]([O-])c1c(OS(=O)(=O)C(F)(F)F)nc2ccccc2c1OS(=O)(=O)C(F)(F)F
86 to 87	CCc1cccc(N=C(C)Nc2cccc(CC)c2)c1
271 to 273	COc1ccc2c(c1)CC(n1cc[nH]c1=S)CC2 (stereo not given)
256 to 258	Cc1ccc(-c2[nH]c(-c3ccc([N+](=O)[O-])cc3)nc2C(=O)Nc2nccs2)cc1
202 to 206	CCOc1ccc(Nc2c([N+](=O)[O-])cc([N+](=O)[O-])c(Cl)c2C(=O)O)cc1
153 to 155	CCOC(=O)N1CCC(NC(=O)c2ccc(Cl)c(Cl)c2)C12CCCCC2 (stereo not given)
182	Cc1ccc(-c2cc(C(F)(F)F)n3ncc(-c4cccnc4)c3n2)cc1C(F)(F)F
130 to 131	CCCCCC(=O)C=Cc1ccc(O)c(O)c1
158 to 160	CCC(CC)n1cc(Br)nc(N2CCc3cc(Cl)cc(Cl)c32)c1=O
177 to 178	O=C1N=CC(OCc2ccccc2)(C(F)(F)F)c2cc(Cl)ccc2N1 (stereo not given)
100 to 102	NS(=O)(=O)Oc1cccc(C(F)(F)F)c1
98 to 100	CC(C)(C)OC(=O)N1CCCC1C(=O)NC(Cc1ccccc1)C(=O)NCC(=O)O (stereo not drawn) (Boc-Pro-Phe-Gly-OH; configuration not given here)
225 to 228	O=[N+]([O-])c1ccc2[nH]c(C(F)(F)F)c([N+](=O)[O-])c2c1
95 to 96	CCOC(=O)c1cc(CCCOc2c(C)cc(-c3noc(C)n3)cc2C)on1
195 to 201	CC(C)(C)NC(=O)Nc1nc2nc(NC3CCOCC3)ncc2cc1Oc1ccc(F)cc1F
96 to 98	CCNC(=S)N1CCN([C@H](C)[C@](O)(Cn2cncn2)c2ccc(F)cc2F)CC1

melting point [°C]	SMILES
50	CSc1ccc([N+](=O)[O-])cc1C(F)(F)F
84 to 85	COC(=O)c1cccc(-c2nc(-c3cccc(OC(F)(F)F)c3)cs2)c1
262 to 264	COc1cc2c(O)cnnc2cc1OCc1ccccc1
205 to 208	CCOC(=O)Nc1cc(-c2cccc3ccccc23)c2nc(C(=O)O)ccc2c1
54 to 55.5	CC(C)(C)OC(=O)NCC/C=C/c1cncnc1
260	CC(=O)C1=C(O)C(=C(C)Nc2cc(NS(C)(=O)=O)cc(NS(C)(=O)=O)c2)C(=O)OC1=O
80 to 81	COc1ccc2c(c1)C1=C(SCC3(CCN(CC(O)COc4ccc(F)cc4)CC3)O1)C(=O)C2=O (stereo not given)
240 to 246	CC(C)(CNC=O)c1ccc2nc(-c3c[nH]cn3)[nH]c2c1
99 to 101	CC(=Cc1ccc(F)cc1)c1ccc2c(c1)C(C)(C)CCC2(C)C
134 to 135	CSc1nnc(SCC(=O)C23CC4CC(CC(C4)C2)C3)s1
136 to 137	COC(C)(C)O[C@H]1C(=O)N[C@H]1c1ccccc1
193 to 194	FC(F)(F)c1cccc(Nc2nc3ccccc3o2)c1
56 to 57	CCOC(=O)c1c(C)cc2cnc(-c3ccccc3C)nc2c1C
204 to 206	CCCNC(=O)Cc1c(-c2ccc(C)s2)nc2sc3ccccc3n12
118 to 120	CNCC1Cc2cc(F)cc(-c3cc(Cl)ccc3Cl)c2O1 (stereo not given)
100 to 101	CCc1cc(Oc2ccc([C@@H]3OC(=O)N[C@@H]3Cc3cccc(OC(F)(F)C(F)F)c3)cc2)ccc1Cl (racemic)
137 to 139	COc1ccc2c(C)c(CCCl)c(=O)oc2c1OC
> 300	COc1cccc2nc3[nH]c(=O)[nH]c3cc12
186 to 187	CCOc1ccccc1-c1ncc(C#N)c(=O)[nH]1
149 to 151	CN1CCc2c(c3ccccc3n2CCC(N)=S)C1
> 250	Brc1cccc2c1[nH]c1c2ccc2cc[nH]c21
160 to 161	CC(C)n1nc(-c2nc(C#N)c(C#N)nc2-c2ccccc2Br)ccc1=O

melting point [°C]	SMILES
189 to 192	Cn1c(C(F)(F)F)cc(=O)n(-c2nc(Cl)c(O)cc2F)c1=O
52 to 54	O=C(OC(c1ccccc1)c1ccccc1)C(O)Cc1ccc(F)cc1 (stereo not given)
83 to 84	Cc1nnc(-c2ccc3occ(-c4ccccc4C)c3c2)o1
132 to 133	CC(=O)c1cc(C(C)=O)c(O)c(C(C)C)c1O
149 to 151	O=S1(=O)NCNc2c(Cl)cc(Cl)cc21
83 to 86	Cc1cccc(Cl)c1CO
85	CCCCCCCCCCCCCCCCN(c1ccccc1)S(=O)(=O)c1ccc(Nc2cc(=O)n(-c3c(C)cc(Cl)cc3Cl)n2C(=O)OCC)cc1
253 to 254	NC(=O)c1nc[nH]c1F
66	C=CCc1cc(C=O)ccc1O
140 to 142	CCC1(CC)O[C@@H](Oc2ccc3c(O)c(NC(=O)C(C)C)c(=O)oc3c2C)[C@H](O)[C@H](OC(=O)C2(C)C=CCN2)[C@H]1OC (stereo not given in full)
222 to 223	CCOC(=O)c1csc(NC(=O)C(CC2CCCC2)c2ccc(NC(=O)c3cccnc3)cc2)n1 (stereo not given)
189 to 191	CC(=O)n1nc(OCC(=O)C(C)(C)C)c(-c2ccccc2)c1-c1ccc(S(C)(=O)=O)cc1
108 to 110	O=[N+]([O-])c1cnc(Sc2cncc(Cl)n2)s1
120 to 122	CSc1ccc(/C=C2/C(CCN(O)C(N)=O)=C(C)c3ccccc32)cc1
138 to 140	COC(=O)N1CC(Cc2ccc(OC)c(OC3CCCC3)c2)N(C(=O)OC)C1=O (stereo not given)
164 to 165	Nc1cc(N2C(=O)C3=C(CCCC3)C2=O)c(F)cc1Cl
74 to 75	CCCCCCN1N=C(c2ccc(OC)c(OC)c2)C2CC=CCC2C1=O (stereo not given)
151 to 153	O=C(O)c1ccccc1SCCCOc1ccc(CCc2ccncc2)cc1
112 to 113	O=C(CCCCSc1ccc(O)cc1)N1CCOCC1
121 to 122	CSCCCCCn1c(C)nc2c(N)nc(C)c(C)c21
39 to 41	C=CCSc1nnc(OCC)c2c1CCCC2
63 to 64	OCc1cc2c(F)ccc(Cl)c2s1

SMILES	melting point [°C]
CN(C)Cc1nc(-c2ncn3c2C2CCCN2C(=O)c2c(Cl)cccc2-3)no1 (stereo not given)	261
CCSC(=N)Nc1ccc2[nH]cc(C3=CCN(C)CC3)c2c1	77 to 79
CC(C)=CCN(CC=C(C)C)Cc1noc(-c2ncn3c2[C@@H]2CCN2C(=O)c2ccccc2-3)n1	119 to 122
O=C(c1ccc(Cl)cc1)c1ccc2c(c1)C(c1cccc(Cl)c1)=NCC(=S)N2	125
C[C@@H]1N(c2ccc(C#N)c(Cl)c2)C(=O)C[C@]1(C)O	93 to 99
O=C(CS(=O)(=O)C(c1ccc(Cl)cc1)c1ccc(Cl)cc1)C(F)(F)F	60 to 62
CCCC(=O)c1cc2c(cc1C)NC(=O)C2(O)C(=O)OCC (stereo not given)	180 to 181
Cc1ccc2c(c1)NCc1ccccc1O2	84 to 86
COc1ccc(C=CC(=O)CC(=O)C=Cc2ccc(OC)c(OC)c2)cc1OC	129 to 131
O=C1Cc2ccnc(N3CCNCC3)c2N1	200 to 204
Cc1cc2c(cc1O)C(C)(C)CC2	70 to 71
CC(C)C(=O)C(C)(C)SN(C)C(=O)ON=C1SC(C)(C)C(=O)N1C	112 to 114
